Entries after “also recorded” stand apart in the source; their conditions may differ. Like-named read-outs stand apart in the source and are kept apart here. Each block holds one molecule with its values, some of them ahead of it.
Tests used:
[1] = after IV administration; cited from earlier work
DT22 cells = assay: Cell proliferation assay (WST-1), DT22; type: cell-based, human
Method: (§1) All cells were tested for mycoplasma using Real-Time PCR Mycoplasma Detection Kit (Akron Biotech, Boca Raton, FL).
(§2) All assays were performed in triplicate.

FOXM1 protein = target: T1, FOXM1 protein (Homo sapiens, UniProt Q08050); assay: Competitive binding of inhibitors to FOXM1 by tr-FRET (Fl-NB-72 probe); conditions: tr-FRET competition with Fl-NB-72; Ki calculated from IC50 (Cheng-Prusoff)
T1 construct: a terbium donor was attached to purified full length FOXM1 through a streptavidin-biotin linker
T1 sequence (Q08050 1-763): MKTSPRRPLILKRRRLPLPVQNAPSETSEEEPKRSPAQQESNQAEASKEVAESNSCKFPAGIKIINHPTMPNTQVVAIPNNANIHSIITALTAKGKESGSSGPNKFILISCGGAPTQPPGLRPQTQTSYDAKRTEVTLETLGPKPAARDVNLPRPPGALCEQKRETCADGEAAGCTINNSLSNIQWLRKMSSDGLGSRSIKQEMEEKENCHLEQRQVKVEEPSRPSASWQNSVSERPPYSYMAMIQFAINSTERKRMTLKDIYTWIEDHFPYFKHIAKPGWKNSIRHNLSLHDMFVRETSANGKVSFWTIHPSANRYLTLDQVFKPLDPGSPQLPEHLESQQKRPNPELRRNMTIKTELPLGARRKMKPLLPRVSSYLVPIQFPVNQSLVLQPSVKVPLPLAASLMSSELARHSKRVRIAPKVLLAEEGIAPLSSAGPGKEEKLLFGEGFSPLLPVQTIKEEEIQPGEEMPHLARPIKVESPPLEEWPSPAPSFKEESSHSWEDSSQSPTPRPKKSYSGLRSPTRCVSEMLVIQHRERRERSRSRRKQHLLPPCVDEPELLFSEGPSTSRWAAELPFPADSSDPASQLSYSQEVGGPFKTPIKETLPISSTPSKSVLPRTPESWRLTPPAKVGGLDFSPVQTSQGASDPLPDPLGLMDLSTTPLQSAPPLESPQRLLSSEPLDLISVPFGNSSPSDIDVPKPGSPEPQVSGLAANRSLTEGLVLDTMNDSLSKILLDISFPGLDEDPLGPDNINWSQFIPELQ
Method: Competitive binding assays of FOXM1 inhibitor binding to FOXM1 by tr-FRET were conducted. All tr-FRET experiments used FRET buffer (20 mM Tris, pH 7.5, 50 mM NaCl, 0.01% NP-40 detergent, 10% glycerol) with 0.3 mg/ml ovalbumin and 0.1 mM butylated hydroxy-anisole added fresh daily. Solutions of the protein, fluorescent probe and inhibitor dilutions were prepared at 3× the final concentrations, the final dilution taking place as they were mixed together on the microtiter plate.
Final concentrations were 10^-5M to 10^-9M, with the last point being buffer only, no inhibitor. Fluorescein-NB-72 (Fl-NB-72) was prepared at 1 mM in DMF and stored at −20° C. It was diluted into plain FRET buffer to give 100 nM in the assay.
Incubations were done in duplicate on black Molecular Devices 96-well microtiter plates. […] To this were added 5 μL of the inhibitor dilutions, mixed and incubated, in the dark, at room temperature, for 1 h. […] Diffusion-enhanced FRET was determined by a parallel incubation without biotin-FOXM1 and subtracted as a background signal. Graphs were prepared using Graph Pad/Prism 4.

MCF7 cells = assay: Cell proliferation assay (WST-1), MCF7; type: cell-based, human; conditions: for IC50: read-out: IC50 MCF7
Method: as §1, §2

[2] = test system: DT22 triple negative human breast tumor xenografts; assay: DT22 triple negative breast tumor xenografts in NSG mice; type: in vivo, mouse; conditions: for Tumor growth in vivo, low doses: 5 or 10 mg/kg s.c. every second or third day
Method: In vivo breast cancer xenograft studies For examination of the growth of triple-negative DT22 breast tumors, intact female NOD/SCID-gamma (NSG) mice were used. DT-22 cells (1×10^6 cells/mouse) were injected s.c. into the right axial mammary gland. Mice received s.c. injection or oral gavage daily or every second or third day, as indicated, with vehicle or FOXM1 inhibitor compound, and tumor growth was monitored over time.

MDA-MB-231 cells = assay: Cell proliferation assay (WST-1), MDA-MB-231; type: cell-based, human; conditions: inhibition of cell proliferation, read-out: IC50 MDA-MB-231
Method: as §1, §2

[3] = Pharmacokinetic studies in mice after single s.c. or oral dose; conditions: for half-life / AUC(0-t): female, CD-1, mouse, plasma
Method: For s.c. injection, each compound was dissolved in DMSO and then mixed with corn oil for a total injection volume of 100 μL (10% DSMO+90% corn oil) per mouse. For oral gavage, compounds were administered in a 200 μL formulation of 9/0.5/0.5/90 parts of PEG400/Tween80/Povidone/0.5% Carboxymethylcellulose. […] Compounds were quantified by LC-MS/MS at the University of Illinois Metabolomics Core Facility. The data were fitted to a non-compartment model.

breast cancer cell lines = assay: Proliferation of breast cancer cell lines (panel, line not specified); type: cell-based, human; conditions: for IC50: read-out: IC50 for inhibition of proliferation of breast cancer cell lines
Method: as §1, §2

FOXM1 and ERα = assay: Cellular level of FOXM1 and ERα (Western blot, mRNA); type: cell-based, human; conditions: Western blot over time
Method: In-cell Western and Western blot assays Cells were cultured in 96-well plates at 3000 cells/well, and treated with compounds for the times indicated. Cells were washed twice in PBS, fixed with 4% formaldehyde (Fisher Scientific) solution in PBS, permeabilized in 0.1% Triton X-100 in PBS, blocked with Odyssey Blocking Buffer (LI-COR), and incubated with FOXM1 antibody (GeneTex, 102170) rabbit HC-20 ERa antibody (Santa Cruz, Cat #SC-543) or mouse F10 ERa antibody (Santa Cruz, Cat #SC8002) at 4 C overnight. Both IRDye 800 CW goat anti-rabbit secondary antibody (LI-COR, Cat #926-32211) and Cell Tag 700 (LI-COR, Cat #926-41090) were diluted (1:600) for incubation with cells. Plates were washed and staining signals were quantified and normalized with Cell Tag signals (to control for any differences in cell number per well) using LI-COR Odyssey infrared imaging system. Fold changes in protein levels were calculated relative to the vehicle treated WT samples. Results are the average±SD from at least three independent experiments, each performed with 4 wells per treatment condition. […]
RNA isolation and real-time PCR Total RNA was isolated using TRIzol (Invitrogen) and reverse transcribed using […] reverse transcriptase (New England BioLabs). […] Relative mRNA levels of genes were normalized to the housekeeping gene 36B4, and fold change calculated relative to the vehicle treated samples. […]

[4] = test system: tamoxifen-resistant MCF7 breast cancer cells; assay: Proliferation of tamoxifen-resistant MCF7 cells; type: cell-based, human; conditions: 6 days
Method: Values are mean±SD of three separate assays. Cell proliferation assay WST-1 assay (Roche, Basel, Switzerland) was used to quantify cell viability as described (Gong et al., Mol. Cell Endocrinol., 2016, 437:190-200). Absorbance was measured at 450 nm using a VICTOR X5 PerkinElmer 2030 Multilabel Plate Reader. All assays were performed in triplicate.

[5] = Homo sapiens, DT-22, inhibition of cell proliferation
[6] = Homo sapiens, MCF7, inhibition of cell proliferation
[7] = mice, oral, doses of FIGS. 6A-6B
[8] = mice, s.c., doses of FIGS. 6A-6B
[9] = cell line not specified or several lines

Compound: CCN(CC)c1ccc(C(c2ccc(N(CC)CC)cc2)=c2ccc3c(c2)CCc2ccccc2[N+]=3CCCN(C)C)cc1 [Imipramine Blue]
half-life t1/2 [1]: 0.183 h

Compound: C[N+]1(CCCCCCOc2ccc(C(=C3C4CC5CC(C4)CC3C5)c3ccc(OCCCCCC[N+]4(C)CCCC4)cc3)cc2)CCCC1 [NB-68, 1,1′-((((((5r,7r)-adamantan-2-ylidene)methylene)bis(4,1-phenylene))bis(oxy))bis(hexane-6,1-diyl))bis(1-methylpyrrolidin-1-ium) diiodide]
IC50 (DT22 cells; [5]): 0.7 µM | Ki (FOXM1 protein): 0.051 µM | IC50 (MCF7 cells; [6]): 0.8 µM | Tumor growth in vivo, low doses [2]: greatly suppress tumor growth | Growth of DT22 tumor xenografts ([2]; s.c., 20 mg/kg every other day for first 10 days then 10 mg/kg every other day): greatly suppress tumor growth | IC50 (MDA-MB-231 cells; Homo sapiens, MDA-MB-231): 1.7 µM | half-life ([3]; po, 60 mg/kg): 18.5 h | AUC(0-t) ([3]; po, 60 mg/kg, PK p.o. AUC0-48, mice, 60 mg/kg p.o.): 0.18 µM·h | half-life ([3]; sc): 25 to 40 h | half-life ([3]; sc, 60 mg/kg): 109 h | AUC(0-t) ([3]; sc, 60 mg/kg, PK s.c. AUC0-48, mice, 60 mg/kg s.c.): 289 µM·h | Blood levels after oral administration [3, 7]: very low levels | Blood levels after s.c. injection [3, 8]: very high blood levels

Compound: C=C(NC(=O)C(=C)NC(=O)c1csc(C2=N[C@@H]3c4csc(n4)[C@H]4NC(=O)c5csc(n5)[C@H]([C@](C)(O)[C@@H](C)O)NC(=O)[C@H]5CSC(=N5)/C(=C/C)NC(=O)[C@H]([C@@H](C)O)NC(=O)c5csc(n5)[C@]3(CC2)NC(=O)[C@H](C)NC(=O)C(=C)NC(=O)[C@H](C)NC(=O)[C@H]([C@@H](C)CC)N[C@@H]2C=Cc3c([C@H](C)O)cc(nc3[C@H]2O)C(=O)O[C@@H]4C)n1)C(N)=O [thiostrepton, reference compound]
IC50 (DT22 cells; [5]): 3.6 µM | IC50 (MCF7 cells; [6]): 1.4 µM | IC50 (breast cancer cell lines; Homo sapiens): 2 µM | Cellular FOXM1 and ERα proteins (FOXM1 and ERα): downregulated

Compound: CC/C(=C(\c1ccc(O)cc1)c1ccc(OCCN(C)C)cc1)c1ccccc1 [trans-hydroxytamoxifen, reference compound]
Effect on proliferation of tamoxifen-resistant MCF7 cells [4]: weakly stimulated

Compound: c1cc(C(=C2C3CC4CC(C3)CC2C4)c2ccc(OCCCCCCN3CCCC3)cc2)ccc1OCCCCCCN1CCCC1 [NB-65, 1,1′-((((((5r,7r)-adamantan-2-ylidene)methylene)bis(4,1-phenylene))bis(oxy))bis(hexane-6,1-diyl))dipyrrolidine]
IC50 (DT22 cells; [5]): 1 µM | Ki (FOXM1 protein): 0.19 µM | IC50 (MCF7 cells; [6]): 0.8 µM | IC50 for inhibition of proliferation of breast cancer cell lines (breast cancer cell lines; [9]): submicromolar

Compound: CCN(CC)CCCCCCOc1ccc(C(c2ccc(OCCCCCCN(CC)CC)cc2)=C2[C@H]3C[C@@H]4C[C@@H](C[C@H]2C4)C3)cc1 [NB-51, 6,6′-(((((5r,7r)-adamantan-2-ylidene)methylene)bis(4,1-phenylene))bis(oxy))bis(N,N-diethylhexan-1-amine)]
IC50 (DT22 cells; [5]): 1.5 µM | Ki (FOXM1 protein): 0.13 µM | IC50 (MCF7 cells; [6]): 0.7 µM | Improvement in anti-proliferative activity versus monoamine NB-54 (MCF7 cells; MCF-7 cells): ~5 fold | half-life ([3]; po, 20 mg/kg): 20.1 h | AUC(0-t) ([3]; po, 20 mg/kg, PK p.o. AUC0-48, mice, 20 mg/kg p.o. (footnote *)): 1.8 µM·h | AUC(0-t) ([3]; sc, 20 mg/kg, PK s.c. AUC0-48, mice, 20 mg/kg s.c. (footnote *)): 4.7 µM·h

Further lines, with some results ahead:

Ki (FOXM1 protein): 0.076 µM | IC50 (MCF7 cells; [6]): 5.5 µM | half-life ([3]; sc): 25 to 40 h | AUC(0-t) ([3]; sc, 40 mg/kg, PK s.c. AUC0-48, mice, 40 mg/kg s.c.): 160 µM·h | PK p.o. AUC0-48 ([3]; mice, 40 mg/kg p.o.): too low to measure | Blood levels after oral administration [3, 7]: very low levels | AUC after s.c. administration relative to NB-55 ([3]; mice, s.c.): approximately 3 fold | Blood levels after s.c. injection [3, 8]: very high blood levels
Compound: C[N+]1(CCCCCCOc2ccc(C(c3ccc(Cl)cc3)=C3C4C[C@H]5C[C@@H](C4)C[C@H]3C5)cc2)CCCC1 [NB-63]
IC50 (DT22 cells; [5]): 6 µM | Tumor growth in vivo, low doses [2]: greatly suppress tumor growth | Growth of DT22-Luc xenograft tumors, low doses ([2]; NB-115 s.c. daily 2 or 6 mg/kg, NB-63 s.c. daily 20 mg/kg until day 20, then 10 mg/kg every other day): suppress the growth; also recorded: effective in suppressing the growth | Animal body weight ([2]; same low-dose regimens as tumor study (FIG. 14B)): do not affect; also recorded: little impact

Ki (FOXM1 protein): 0.143 µM | IC50 (MCF7 cells; inhibition of cell proliferation): 3.1 µM | IC50 (MDA-MB-231 cells): 4.5 µM | IC50 (breast cancer cell lines; [9]): 8 µM | Blood levels after s.c. administration ([3]; mice, 20 mg/kg s.c.): very low blood levels | Blood levels after oral administration ([3]; mice, 40 mg/kg oral, 40 mg/kg): undetectable | Blood levels after oral administration ([3]; mice, 40 mg/kg oral, listed as FDI 6, 40 mg/kg): not detectable
Compound: Nc1c(C(=O)Nc2ccc(F)cc2)sc2nc(-c3cccs3)cc(C(F)(F)F)c12 [FDI-6, reference compound]
IC50 (DT22 cells; inhibition of cell proliferation, read-out: IC50 DT-22): 4.8 µM | Cellular FOXM1 and ERα proteins (FOXM1 and ERα): downregulated

From patent US12187662B2, “FOXM1 inhibitor compositions and methods of using the same” (The Board of Trustees of the University of Illinois, priority 2018, dated 2025)
